Laboratory results from US10945981B2, “Methods for treating familial adenomatous polyposis” (CANCER PREVENTION PHARMACEUTICALS, INC., priority 2019, dated 2021).
“Also recorded” adds a separate entry of the source.

Tests used:
[1] = tested on: patients with Familial Adenomatous Polyposis (FAP); assay: Randomized, double-blind phase III trial in FAP patients: FAP-related events (efficacy); format: in vivo, human; conditions: for Mean time to first FRE: Kaplan-Meier estimated; for Hazard ratio: combination versus the arm named
Text: Patients were stratified by anatomic site with highest polyp burden and surgical status: (a) post colectomy with rectal or ileal pouch polyposis (longest projected time to first FRE); (b) with duodenal polyposis (intermediate projected time to first FRE); and (c) pre-colectomy (shortest projected time to first FRE) prior to randomization to minimize treatment imbalance.
A stratified randomization procedure was used with stratification based on FAP-related time-to-first-event prognosis (see FIG. 1). The event prognosis groups were represented by 1) best (i.e., longest projected time to first FAP-related event)—rectal/pouch polyposis (Post-colectomy (≥3 years S/P IRA or IPAA with >10 polyps; any polyps >5 mm excised at baseline)), 2) intermediate—duodenal polyposis (Spigelman Stage 3 or 4 or Spigelman Stage 3 or 4 down-staged to Spigelman 1 or 2 within the past 6 months), and 3) worst—pre-colectomy. If a subject has two or more of these disease sites, the most severe prognosis stratum was assigned for randomization (e.g. worst>intermediate>best). Since an individual may have more than one disease site involved, the trial assessed time to any defined FAP-related event in the subject as a whole. In order to minimize potential treatment arm imbalance a centralized randomization process was used to balance among treatment groups within prognostic strata.
Lower GI Endoscopy: Patients were evaluated via colonoscopy, flexible or rigid procto-sigmoidoscopy during the screening phase. Biopsies, ablations, and snare excisions at baseline were performed per the clinician's standard of care. If considered eligible based on inclusion criteria, a grossly normal mucosa biopsy was obtained for baseline polyamine measurement. Still and video documentation of the colon (vide infra) or the residual rectum or entire pouch was also obtained for archiving. Polyp size was determined by visual comparison with biopsy forceps that can measure 5.0-5.5 mm in the fully open position. All randomized patients with an intact colon or rectum/pouch had baseline and on-study lower GI endoscopy procedures as part of this trial.
Upper GI Endoscopy: The duodenum was evaluated by forward-viewing and/or side-viewing gastroscopes (with still and video documentation with closed and open biopsy forceps near mucosa). All randomized patients with a duodenum had baseline and on-study UGI endoscopy as part of this trial. Subjects stratified to the duodenal group must have duodenal biopsies of all polyps 1 cm or larger to determine HGD and histology required for determining Stage 3 or 4 Spigelman status.
FAP-related primary events by disease site were as follows: • 1. Pre-operative, intact colon: Disease progression indicating need for colectomy with IRA or total procto-colectomy • 2. Retained rectum or pouch events include one or more of the following: • a) Excisional intervention by endoscopic snare or trans-anal excision to remove any polyp ≥10 mm in size (per pathology report) and/or pathologic evidence of high grade dysplasia. • b) Disease progression indicating need for proctectomy or pouch resection • 3. Duodenal disease includes the following: • a) Progression in Spigelman Stage to more advanced stage (Stage 2, 3 or 4) • b) Disease progression indicating need for excisional intervention (sub-mucosal resection, trans-duodenal excision, ampullectomy, duodenectomy, Whipple procedure) • c) Development of cancer
At six month intervals (+/−two weeks), subjects underwent repeat upper and lower endoscopy. […] Video recordings of all procedures and qualitative assessments were compared to the exam 6 months prior.

[2] = cited from earlier work
[3] = human, in vivo; cited from earlier work
[4] = tested on: patients with Familial Adenomatous Polyposis (FAP); assay: Randomized, double-blind phase III trial in FAP patients: safety (adverse events); conditions: for Treatment-related serious adverse events: 1 patient each
[5] = in vivo; cited from earlier work
patients with FAP = conditions: cited from earlier work
[6] = disease site colon, number of subjects
[7] = disease site duodenum, number of subjects
[8] = disease site rectum and pouch, number of subjects
[9] = post-colectomy, rectal/ileal pouch stratum

For `CC1=C(CC(=O)O)c2cc(F)ccc2/C1=C\c1ccc([S+](C)[O-])cc1` (stereo not shown) [Sulindac, (Z)-5-fluoro-2-methyl-1-((4-(methylsulfinyl)phenyl)methylene)-1H-indene-3-acetic acid], the “Kaplan-Meier estimated mean time to first FRE” value ([1]; ITT population) was 23.6 months, the Event-free rate ([1]; ITT population, cumulative) was 63.1% and the “FREs occurred, percent of patients” value ([1]; ITT population, cumulative) was 37.9%. For the same molecule, the “Surgical FAP-related events, Colon: Event-free proportion” value ([1]; disease site colon) was 69.2%, the “Surgical FAP-related events, Colon: Colectomy” value [1, 6] was 2 and the “Surgical FAP-related events, Colon: Disease progression” value [1, 6] was 4. The “Surgical FAP-related events, Duodenum: Event-free proportion” value ([1]; disease site duodenum) was 70.2%, the “Surgical FAP-related events, Duodenum: Disease progression” value [1, 7] was 10 and the “Surgical FAP-related events, Duodenum: Excisional intervention” value [1, 7] was 6. The “Surgical FAP-related events, Duodenum: Spigelman stage progression” value [1, 7] was 7, the “Surgical FAP-related events, Rectum and Pouch: Event-free proportion” value ([1]; disease site rectum and pouch) was 95% and the “Surgical FAP-related events, Rectum and Pouch: Disease progression” value [1, 8] was 2. The “Surgical FAP-related events, Rectum and Pouch: Proctectomy/pouch resection” value [1, 8] was 1, the “FRE type: Duodenal excision” value ([1]; duodenal polyposis stratum) was 6 and the “FRE type: Duodenal excision and Spigelman stage progression” value ([1]; duodenal polyposis stratum) was 2. The “FRE type: Duodenal excision and ≥ 10 mm polyp removed in rectum/pouch” value ([1]; duodenal polyposis stratum) was 1, the “FRE type: Proctocolectomy and ≥ 10 mm polyp removed in rectum/pouch” value ([1]; duodenal polyposis stratum) was 1 and the “FRE type: Spigelman stage progression” value ([1]; duodenal polyposis stratum) was 3. For the same molecule, the “FRE type: ≥10 mm polyp removed in rectum/pouch” value ([1]; duodenal polyposis stratum) was 1, the “Patients with FRE, %” value ([1]; duodenal polyposis stratum) was “(41.2) %” and the “Total FRE” value ([1]; duodenal polyposis stratum) was 14. For the same molecule, the “Mean time to first FRE” value ([1]; duodenal polyposis stratum) was 21.1 months, the “Risk reduction versus combination” value ([1]; duodenal polyposis stratum, combination relative to the arm named) was 29% and the Hazard ratio ([1]; duodenal polyposis stratum) was 0.716. For the same molecule, the “Patients with FRE, %” value ([1]; duodenal polyposis stratum, listed as sulindac) was 41.2%, the “Progression of lower gastrointestinal polyposis: surgeries” value ([1]; human, in vivo) was 3 and the “Patients with duodenal polyposis progression who underwent duodenal excisional procedures” value ([1]; number of patients) was 6. For the same molecule, the “FRE type: Pouch resection” value [1, 9] was 1, the “FRE type: ≥10 mm polyp removed in rectum/pouch” value [1, 9] was 1 and the “Patients with FRE, %” value [1, 9] was “(18.2) %”. For the same molecule, the “Total FRE” value [1, 9] was 2, the “Mean time to first FRE” value [1, 9] was 27.5 months and the “Risk reduction versus combination” value ([1]; post-colectomy, rectal/ileal pouch stratum, combination relative to the arm named) was 16%. The Hazard ratio [1, 9] was 0.841, the “Patients with FRE, %” value ([1]; post-colectomy, rectal/ileal pouch stratum, listed as sulindac) was 18.2% and the “FRE type: Colectomy” value ([1]; pre-colectomy stratum) was 4. The “FRE type: Duodenal excision and Spigelman stage progression” value ([1]; pre-colectomy stratum) was 1, the “FRE type: Spigelman stage progression” value ([1]; pre-colectomy stratum) was 1 and the “Patients with FRE, %” value ([1]; pre-colectomy stratum) was “(46.2) %”. The “Total FRE” value ([1]; pre-colectomy stratum) was 6, the “Mean time to first FRE” value ([1]; pre-colectomy stratum) was 25.2 months and the Hazard ratio ([1]; pre-colectomy stratum) was 0.299. The “Patients with FRE, %” value ([1]; pre-colectomy stratum, listed as sulindac) was 46.2%, the “Risk reduction versus combination” value ([1]; pre-colectomy stratum, risk reduction for FRE of the combination relative to the arm named) was 70% and the “Event Rate of FAP-related Surgery Events in Lower GI” value ([1]; subjects with lower GI anatomy) was 6/58 (10%). For the same molecule, the “Lower GI surgery events: Need colectomy” value ([1]; subjects with lower GI anatomy) was 4, the “Lower GI surgery events: Need pouch resection” value ([1]; subjects with lower GI anatomy) was 1 and the “Lower GI surgery events: Need proctectomy” value ([1]; subjects with lower GI anatomy) was 1. The “Lower GI surgery events: Total Surgical Events” value ([1]; subjects with lower GI anatomy) was 6, the “Progression of lower gastrointestinal polyposis: polypectomies” value ([1]; ≥10 mm in size and/or high grade dysplasia) was 4 and the “Time to peak plasma levels” value ([2]; oral, fasting patients) was “about 2 hours”. The “Drug absorbed after oral administration” value ([2]; oral) was “about 90%”, the “Mild gastrointestinal effects, percent of patients” value [3] was ~20% and the “Skin rash and pruritus, percent of patients” value [3] was 5%. The “Discontinuations due to AEs, number of patients” value [4] was 6 patients, the “Discontinuations due to AEs, percent of patients” value [4] was 10.3% and the “TRAE reported by % of patients” value [4] was 73.7%. The “Treatment-related hearing adverse events: Hearing loss N” value [4] was 2, the “Treatment-related hearing adverse events: Tinnitus N” value [4] was 5 and the “Treatment-related serious adverse events” value [4] was “Severe Nausea; also recorded: Deep Vein Thrombosis; also recorded: Worsening of Depression; also recorded: Spontaneous Abortion”. For the same molecule, the “Treatment-related serious adverse events” value ([4]; listed as sulindac) was “severe nausea, deep vein thrombosis, worsening of depression, and spontaneous abortion”, the Death ([4]; safety population) was 0 n (%) and the “Number of patients discontinuing due to a TRAE” value ([4]; safety population) was 5 (8.8) n (%). For the same molecule, the “Number of patients reporting TEAEs” value ([4]; safety population) was 50 (87.7) n (%), the “Number of patients reporting TEAEs ≥ Grade 3” value ([4]; safety population) was 12 (21.1) n (%) and the “Number of patients reporting TRAE: Abdominal distension” value ([4]; safety population) was 3 (5.3) n (%). The “Number of patients reporting TRAE: Abdominal pain” value ([4]; safety population) was 4 (7.0) n (%), the “Number of patients reporting TRAE: Alopecia” value ([4]; safety population) was 3 (5.3) n (%) and the “Number of patients reporting TRAE: Decreased appetite” value ([4]; safety population) was 4 (7.0) n (%). For the same molecule, the “Number of patients reporting TRAE: Depression” value ([4]; safety population) was 3 (5.3) n (%), the “Number of patients reporting TRAE: Diarrhea” value ([4]; safety population) was 3 (5.3) n (%) and the “Number of patients reporting TRAE: Dizziness” value ([4]; safety population) was 2 (3.5) n (%). The “Number of patients reporting TRAE: Dyspepsia” value ([4]; safety population) was 4 (7.0) n (%), the “Number of patients reporting TRAE: Fatigue” value ([4]; safety population) was 4 (7.0) n (%) and the “Number of patients reporting TRAE: Flatulence” value ([4]; safety population) was 3 (5.3) n (%). For the same molecule, the “Number of patients reporting TRAE: Frequent bowel movements” value ([4]; safety population) was 1 (1.8) n (%), the “Number of patients reporting TRAE: Gastritis erosive” value ([4]; safety population) was 0 n (%) and the “Number of patients reporting TRAE: Headache” value ([4]; safety population) was 7 (12.3) n (%). For the same molecule, the “Number of patients reporting TRAE: Hematochezia” value ([4]; safety population) was 2 (3.5) n (%), the “Number of patients reporting TRAE: Nausea” value ([4]; safety population) was 9 (15.8) n (%) and the “Number of patients reporting TRAE: Pruritus” value ([4]; safety population) was 4 (7.0) n (%). The “Number of patients reporting TRAE: Rash” value ([4]; safety population) was 0 n (%), the “Number of patients reporting TRAE: Rectal hemorrhage” value ([4]; safety population) was 4 (7.0) n (%) and the “Number of patients reporting TRAE: Thrombocytopenia” value ([4]; safety population) was 3 (5.3) n (%). For the same molecule, the “Number of patients reporting TRAE: Tinnitus” value ([4]; safety population) was 5 (8.8) n (%), the “Number of patients reporting TRAE: Upper abdominal pain” value ([4]; safety population) was 1 (1.8) n (%) and the “Number of patients reporting TRAE: Vomiting” value ([4]; safety population) was 4 (7.0) n (%). For the same molecule, the “Number of patients reporting TRAEs” value ([4]; safety population) was 42 (73.7) n (%) and the “Number of patients reporting TRSAEs” value ([4]; safety population) was 4 (7.0) n (%).
For `Cc1ccc(-c2cc(C(F)(F)F)nn2-c2ccc(S(N)(=O)=O)cc2)cc1` [celecoxib, 4-[5-(4-Methylphenyl)-3-(trifluoromethyl)pyrazol-1-yl]benzenesulfonamide], the “Increase in rates of heart and blood vessel disease” value [5] is given as 30%, the “Risk of gastrointestinal side effects” value [5] is given as “greater than 80%” and the “Reduction of measures of global tumor burden from baseline” value (patients with FAP) is given as 30%. The “Reduction of the number of colonic adenomas” value (patients with FAP) was 1%.
In the case of `CSc1ccc(/C=C2/C(C)=C(CC(=O)O)c3cc(F)ccc32)cc1` [sulfide metabolite], the Mean half-life ([2]; in vivo) is given as 16.4 h.
